# Measured values published in US10662359B2, “Heat transfer fluids and methods of using same” (3M INNOVATIVE PROPERTIES COMPANY, priority 2017, dated 2020).
# Tested on: rats
# Test: 4 hour acute inhalation toxicity in rats
# Format: in vivo
# Settings: rats dosed at 10,000 or 619 ppm vol/vol in air for 4 hours, 14 day post-dose monitoring; LC-50 estimated, interpreted as highest exposure level tested
# Experimental: The 4 hour acute inhalation toxicity of Example 3 and CE2 in rats was determined by dosing animals at 10,000 or 619 ppm vol/vol in air (per Table 4) for 4 hours followed by 14 day post-dose monitoring. Based on the animal test results and the vapor concentration of the test compound, the LC-50 values were estimated. The NOEL (No Effect Level) value of CE3 was obtained from du Pont de Nemours trade literature. The 4 hr inhalation LC-50 value for CE4 was obtained from Solvay MSDS.
smiles,measurement,value
"FC(=C(C(F)(F)F)C(F)(F)C(F)(F)C(F)(F)F)C(F)(C(F)(F)F)C(F)(F)F [Example 3, 1,1,1,2,3,5,5,6,6,7,7,7-dodecafluoro-2,4-bis(trifluoromethyl)hept-3-ene]",LC-50 (4 hr Inhalation in Rats),">10,000 ppmv"
